Experimental data published in PubChem BioAssay AID330 (DTP/NCI, 2004).
Several values for one entry are separate records, joined by “and”; a condition that tells them apart may be missing. Equal entries are not always repeated. Toxic doses and inconclusive results are not listed.

System: P388 leukemia ip, CD2F1 mice, survival T/C
Assay: NCI In Vivo Anticancer Drug Screen. Data for tumor model P388 Leukemia (intraperitoneal) in CD2F1 (CDF1) mice
Settings: endpoint: median survival time, higher = longer survival
Outline: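 Mice carrying the transplanted tumor received test compound or vehicle. Survival was recorded in each group, and the value is the treated-group measurement divided by that of the vehicle-treated control group.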

[1] = dose: 50.0 mg/kg/injection, schedule: Q01DX005 (ip), vehicle: saline with Tween-80
[2] = dose: 100.0 mg/kg/injection, schedule: Q01DX005 (ip), vehicle: saline with Tween-80
[3] = dose: 200.0 mg/kg/injection, schedule: Q01DX005 (ip), vehicle: saline with Tween-80
[4] = dose: 12.5 mg/kg/injection, schedule: Q01DX005 (ip), vehicle: saline with Tween-80
[5] = dose: 25.0 mg/kg/injection, schedule: Q01DX005 (ip), vehicle: saline with Tween-80
[6] = dose: 25.0 mg/kg/injection, schedule: Q04DX002 (ip), vehicle: saline
[7] = dose: 50.0 mg/kg/injection, schedule: Q04DX002 (ip), vehicle: saline
[8] = dose: 100.0 mg/kg/injection, schedule: Q04DX002 (ip), vehicle: saline
[9] = dose: 60.0 mg/kg/injection, schedule: Q01DX005 (ip), vehicle: saline
[10] = dose: 120.0 mg/kg/injection, schedule: Q01DX005 (ip), vehicle: saline
[11] = dose: 50.0 mg/kg/injection, schedule: Q01DX009 (ip), vehicle: saline with Tween-80
[12] = dose: 100.0 mg/kg/injection, schedule: Q01DX009 (ip), vehicle: saline with Tween-80

For `C/C(=C\CCCC(/C=C/C=C/CCCCOCc1ccccc1)O[Si](C)(C)C(C)(C)C)CO` (stereo not drawn), the T/C [1] was 102 % of control, the T/C [2] was 101 % of control and the T/C [3] was 99 % of control.

For `Cc1ccc(Nc2ncnc3c2c(=O)n(C)c(=O)n3C)cc1C`, the T/C [4] was 100 % of control, the T/C [5] was 100 % of control and the T/C [1] was 86 % of control and 91 % of control. The T/C [2] was 88 % of control and the T/C [3] was 96 % of control.

For `N#CC1CC(c2ccc([N+](=O)[O-])cc2)N(c2ccccc2)O1` (stereo not drawn), the T/C (dose: 100.0 mg/kg/injection, schedule: Q01DX001 (ip), vehicle: saline with Tween-80) was 95 % of control, the T/C (dose: 100.0 mg/kg/injection, schedule: Q04DX002 (ip), vehicle: saline with Tween-80) was 100 % of control and 104 % of control and the T/C (dose: 200.0 mg/kg/injection, schedule: Q01DX001 (ip), vehicle: saline with Tween-80) was 94 % of control. The T/C (dose: 200.0 mg/kg/injection, schedule: Q04DX002 (ip), vehicle: saline with Tween-80) was 95 % of control and 88 % of control, the T/C (dose: 400.0 mg/kg/injection, schedule: Q01DX001 (ip), vehicle: saline with Tween-80) was 92 % of control and the T/C (dose: 400.0 mg/kg/injection, schedule: Q04DX002 (ip), vehicle: saline with Tween-80) was 98 % of control and 90 % of control.

For `C=C(C)C(=O)NC(N)=NC#N`, the T/C (dose: 60.0 mg/kg/injection, schedule: Q01DX005 (ip), vehicle: Klucel (hydroxypropylcellulose) (HPC)) was 122 % of control.

`COc1cc2c(cc1OC)C(O)C1CCCNC1C2` (stereo not drawn) was tested, and the T/C [6] was 98 % of control, the T/C [7] was 103 % of control and the T/C [8] was 102 % of control. For the same compound, the T/C (dose: 200.0 mg/kg/injection, schedule: Q04DX002 (ip), vehicle: saline) was 102 % of control and the T/C (dose: 400.0 mg/kg/injection, schedule: Q04DX002 (ip), vehicle: saline) was 101 % of control.

With `CCCNCC/C=C/[Si](C)(C)C` the T/C [9] was 105 % of control and the T/C [10] was 100 % of control.

With `COc1ccc(C(C)c2cc3c(cc2OCCO)OCO3)cc1OC` (stereo not drawn) the T/C (dose: 50.0 mg/kg/injection, schedule: Q01DX005 (ip), vehicle: distilled water + Tween-80) was 97 % of control, the T/C (dose: 100.0 mg/kg/injection, schedule: Q01DX005 (ip), vehicle: distilled water + Tween-80) was 93 % of control and the T/C (dose: 200.0 mg/kg/injection, schedule: Q01DX005 (ip), vehicle: distilled water + Tween-80) was 97 % of control.

In the case of `Cc1cnc(C#N)c(C#N)n1`, the T/C (dose: 6.25 mg/kg/injection, schedule: Q01DX005 (ip), vehicle: Klucel (hydroxypropylcellulose) (HPC)) is reported as 103 % of control, the T/C (dose: 12.5 mg/kg/injection, schedule: Q01DX005 (ip), vehicle: Klucel (hydroxypropylcellulose) (HPC)) is reported as 106 % of control and the T/C (dose: 25.0 mg/kg/injection, schedule: Q01DX005 (ip), vehicle: Klucel (hydroxypropylcellulose) (HPC)) is reported as 100 % of control. The T/C (dose: 50.0 mg/kg/injection, schedule: Q01DX005 (ip), vehicle: Klucel (hydroxypropylcellulose) (HPC)) was 116 % of control.

With `C[C@@]12CCCC[C@@H]1Nc1ccccc12` the T/C (dose: 60.0 mg/kg/injection, schedule: Q01DX005 (ip), vehicle: saline with Tween-80) was 98 % of control, the T/C (dose: 120.0 mg/kg/injection, schedule: Q01DX005 (ip), vehicle: saline with Tween-80) was 100 % of control and the T/C (dose: 240.0 mg/kg/injection, schedule: Q01DX005 (ip), vehicle: saline with Tween-80) was 97 % of control.

`c1ccc([C@H]2CN3CCSC3=N2)cc1` was tested, and the T/C (dose: 1.25 mg/kg/injection, schedule: Q01DX009 (ip), vehicle: saline) was 101 % of control, the T/C (dose: 2.5 mg/kg/injection, schedule: Q01DX009 (ip), vehicle: saline) was 97 % of control and the T/C (dose: 5.0 mg/kg/injection, schedule: Q01DX009 (ip), vehicle: saline) was 101 % of control. The T/C (dose: 6.9 mg/kg/injection, schedule: Q01DX005 (ip), vehicle: saline) was 98 % of control, the T/C (dose: 10.0 mg/kg/injection, schedule: Q01DX009 (ip), vehicle: saline) was 99 % of control and the T/C (dose: 11.5 mg/kg/injection, schedule: Q01DX001 (ip), vehicle: saline) was 100 % of control and 109 % of control. For the same compound, the T/C (dose: 11.5 mg/kg/injection, schedule: Q01DX005 (ip), vehicle: saline) was 103 % of control, the T/C (dose: 19.2 mg/kg/injection, schedule: Q01DX001 (ip), vehicle: saline) was 99 % of control and 109 % of control and the T/C (dose: 19.2 mg/kg/injection, schedule: Q01DX005 (ip), vehicle: saline) was 105 % of control. The T/C (dose: 20.0 mg/kg/injection, schedule: Q01DX009 (ip), vehicle: saline) was 113 % of control and the T/C (dose: 32.0 mg/kg/injection, schedule: Q01DX001 (ip), vehicle: saline) was 99 % of control.

In the case of `CCc1c(C)c(SC)n(C)c(=O)c1C#N`, the T/C (dose: 25.0 mg/kg/injection, schedule: Q01DX009 (ip), vehicle: Klucel (hydroxypropylcellulose) (HPC)) is reported as 99 % of control, the T/C (dose: 50.0 mg/kg/injection, schedule: Q01DX009 (ip), vehicle: Klucel (hydroxypropylcellulose) (HPC)) is reported as 100 % of control and the T/C (dose: 100.0 mg/kg/injection, schedule: Q01DX009 (ip), vehicle: Klucel (hydroxypropylcellulose) (HPC)) is reported as 97 % of control. The T/C (dose: 200.0 mg/kg/injection, schedule: Q01DX009 (ip), vehicle: Klucel (hydroxypropylcellulose) (HPC)) was 91 % of control.

In the case of `CN(C)C(=O)Nc1ccc(-c2cccnc2)cc1`, the T/C [9] is reported as 109 % of control, the T/C [10] is reported as 107 % of control and the T/C (dose: 240.0 mg/kg/injection, schedule: Q01DX005 (ip), vehicle: saline) is reported as 93 % of control.

For `[Fe].[c-]1[c-][c-][c-](Cn2nnc3ccccc32)[c-]1.[c-]1[c-][c-][cH-][c-]1`, the T/C [11] was 105 % of control, the T/C [12] was 102 % of control and the T/C (dose: 200.0 mg/kg/injection, schedule: Q01DX009 (ip), vehicle: saline with Tween-80) was 95 % of control.

`O=C1CCC(=O)c2c1c(O)c1c(O)ccc(O)c1c2O` was tested, and the T/C (dose: 6.25 mg/kg/injection, schedule: Q01DX005 (ip), vehicle: saline with Tween-80) was 96 % of control, the T/C [4] was 87 % of control and the T/C [5] was 94 % of control.

With `BrC[P+](CBr)(CBr)CBr` the T/C (dose: 12.5 mg/kg/injection, schedule: Q01DX009 (ip), vehicle: saline) was 151 % of control, the T/C (dose: 25.0 mg/kg/injection, schedule: Q01DX009 (ip), vehicle: saline) was 150 % of control and the T/C [1] was 114 % of control and 117 % of control. The T/C [11] was 151 % of control, the T/C (dose: 50.0 mg/kg/injection, schedule: Q01DX009 (ip), vehicle: saline) was 163 % of control and the T/C [2] was 123 % of control. For the same compound, the T/C [12] was 157 % of control.

With `O=[N+]([O-])/C(=C/c1ccccc1)c1ccccc1` the T/C (dose: 6.25 mg/kg/injection, schedule: Q01DX009 (ip), vehicle: saline with Tween-80) was 109 % of control, the T/C (dose: 6.25 mg/kg/injection, schedule: Q04DX003 (ip), vehicle: saline with Tween-80) was 109 % of control and the T/C (dose: 12.5 mg/kg/injection, schedule: Q01DX009 (ip), vehicle: saline with Tween-80) was 118 % of control. The T/C (dose: 12.5 mg/kg/injection, schedule: Q04DX003 (ip), vehicle: saline with Tween-80) was 100 % of control, the T/C (dose: 25.0 mg/kg/injection, schedule: Q01DX009 (ip), vehicle: saline with Tween-80) was 118 % of control and the T/C (dose: 25.0 mg/kg/injection, schedule: Q04DX003 (ip), vehicle: saline with Tween-80) was 113 % of control.

In the case of `Cc1cc(=O)c2c(=O)[nH][nH]c2[nH]1`, the T/C (dose: 50.0 mg/kg/injection, schedule: Q04DX003 (ip), vehicle: saline with Tween-80) is reported as 100 % of control, the T/C (dose: 100.0 mg/kg/injection, schedule: Q04DX003 (ip), vehicle: saline with Tween-80) is reported as 90 % of control and the T/C (dose: 200.0 mg/kg/injection, schedule: Q04DX003 (ip), vehicle: saline with Tween-80) is reported as 90 % of control.

With `O=C1SC/C(=N\N=c2/scc(-c3ccccc3)n2-c2ccc(Br)cc2)N1Cc1ccccc1` the T/C (dose: 100.0 mg/kg/injection, schedule: Q04DX002 (ip), vehicle: Klucel (hydroxypropylcellulose) (HPC)) was 86 % of control and the T/C (dose: 200.0 mg/kg/injection, schedule: Q04DX002 (ip), vehicle: Klucel (hydroxypropylcellulose) (HPC)) was 91 % of control.

With `O=C1CSC(=S)N1/N=C/c1ccccc1` the T/C [6] was 100 % of control, the T/C [7] was 105 % of control and the T/C [8] was 98 % of control.

`CCOC(=O)C(C)OC1CCCCO1` (stereo not drawn) was tested, and the T/C (dose: 50.0 mg/kg/injection, schedule: Q01DX009 (ip), vehicle: other) was 105 % of control, the T/C (dose: 100.0 mg/kg/injection, schedule: Q01DX009 (ip), vehicle: other) was 95 % of control and the T/C (dose: 200.0 mg/kg/injection, schedule: Q01DX009 (ip), vehicle: other) was 96 % of control.

`CCS/C(C#N)=C(/C)c1ccccc1` was tested, and the T/C [1] was 101 % of control, the T/C [2] was 106 % of control and the T/C [3] was 108 % of control.
